Data from patent US12233161B1, “Lipids and lipid nanoparticle formulations” (LONGUIDE BIOPHARMA CORPORATION, priority 2024, dated 2025).

Assays:
[1] = Particle size and PDI of nucleic acid lipid nanoparticle preparations by dynamic light scattering; assay type: physicochemical
Method in brief: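 LNP solution (about 0.04 mg/mL mRNA before dilution) was diluted in ultrapure water and mixed by gentle pipetting. Particle size and PDI were then measured by dynamic light scattering.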

mice = assay: In vivo delivery of FLuc-mRNA lipid nanoparticles in mice, in vivo imaging (IVIS)
Method in brief: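 Mice (n=3) received about 75 μL FLuc-mRNA LNP per mouse intramuscularly (rectus femoris), intravenously (tail vein), intraperitoneally or subcutaneously (back). After injection, D-luciferin (200 μL, 15 mg/mL) was given i.p. 10-15 min before IVIS imaging.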

[2] = DMG-PEG2000:DSPC:Chol:compound 1.40:11.15:38.95:48.50, N/P 20
[3] = IM, DMG-PEG2000:DSPC:Chol:compound 1.40:11.15:38.95:48.50, N/P 20, Fluc-mRNA
[4] = IV, body, DMG-PEG2000:DSPC:Chol:compound 1.40:11.15:38.95:48.50, N/P 20, Fluc-mRNA
[5] = IV, liver, DMG-PEG2000:DSPC:Chol:compound 1.40:11.15:38.95:48.50, N/P 20
[6] = IV, liver, DMG-PEG2000:DSPC:Chol:compound 1.40:11.15:38.95:48.50, N/P 20, Fluc-mRNA
[7] = IV, lung, DMG-PEG2000:DSPC:Chol:compound 1.40:11.15:38.95:48.50, N/P 20
[8] = IV, lung, DMG-PEG2000:DSPC:Chol:compound 1.40:11.15:38.95:48.50, N/P 20, Fluc-mRNA
[9] = IV, spleen, DMG-PEG2000:DSPC:Chol:compound 1.40:11.15:38.95:48.50, N/P 20
[10] = IV, spleen, DMG-PEG2000:DSPC:Chol:compound 1.40:11.15:38.95:48.50, N/P 20, Fluc-mRNA
[11] = DMG-PEG2000:DSPC:Chol:compound 1.40:11.15:38.95:48.50, N/P 30
[12] = IM, DMG-PEG2000:DSPC:Chol:compound 1.40:11.15:38.95:48.50, N/P 30, Fluc-mRNA
[13] = IV, organ not given, DMG-PEG2000:DSPC:Chol:compound 1.40:11.15:38.95:48.50, N/P 30, Fluc-mRNA
[14] = DMG-PEG2000:DSPC:Chol:Lipid 1.40:11.15:38.95:48.50, N/P 18, mRNA LNP
[15] = DMG-PEG2000:DSPC:Chol:Lipid 1.40:11.15:38.95:48.50, N/P 45, mRNA LNP
[16] = DMG-PEG2000:DSPC:Chol:Lipid 1.77:14.07:49.16:35.00, N/P 45, mRNA LNP

SMILES | PDI [1, 2] | Particle size (nm) [1, 2] | IVIS (mice; [3]) | IVIS (mice; [4]) | % of organ targeting (mice; [5]) | IVIS (mice; [6]) | % of organ targeting (mice; [7]) | IVIS (mice; [8]) | % of organ targeting (mice; [9]) | IVIS (mice; [10]) | PDI [1, 11] | Particle size (nm) [1, 11] | IVIS (mice; [12]) | IVIS (mice; [13]) | further results
CCCCCCCCCCCCNC(=O)C(O)CN(CCOCCOCCN(CC(O)C(=O)NCCCCCCCCCCCC)CC(O)C(=O)NCCCCCCCCCCCC)CC(O)C(=O)NCCCCCCCCCCCC (centres unmarked) [Compound L0305] | 0.18 | 109.93 nm | 4.39E+04 | 8.12E+06 | 35.21% | 2.14E+06 | 1.65% | 1.00E+05 | 63.14% | 3.84E+06 | – | – | – | – | –
CCCCCCCCCCCCNC(=O)C(O)CN(C)CCCN(C)CCCN(C)CC(O)C(=O)NCCCCCCCCCCCC (centres unmarked) [Compound L0311] | – | – | – | – | – | – | – | – | – | – | 0.16 | 111.00 nm | 2.23E+05 | 4.57E+05 | –
CCCCCCCCCCCCNCC(O)CN(CCN(CCN(CC(O)CNCCCCCCCCCCCC)CC(O)C(=O)NCCCCCCCCCCCC)CC(O)C(=O)NCCCCCCCCCCCC)CC(O)C(=O)NCCCCCCCCCCCC (centres unmarked) [Compound L0332] | – | – | – | – | – | – | – | – | – | – | 0.18 | 150.70 nm | 7.75E+05 | 3.67E+05 | –
CCCCCCCCCCNC(=O)C(O)CN(C)CCN(C)CCN(C)CC(O)C(=O)NCCCCCCCCCC (centres unmarked) [Compound L0277] | – | – | – | – | – | – | – | – | – | – | – | – | – | – | PDI [1, 14]: 0.21 ± 0.00; Particle size [1, 14]: 99.36 ± 2.16 nm; IVIS (mice; DMG-PEG2000:DSPC:Chol:Lipid 1.40:11.15:38.95:48.50, N/P 18, IM, whole body scan): 2.60 × 10^5; IVIS (mice; DMG-PEG2000:DSPC:Chol:Lipid 1.40:11.15:38.95:48.50, N/P 18, IV, whole body scan): 4.28 × 10^5
CCCCCCCCCCCCNC(=O)C(O)CN(CCCN(CC(O)C(=O)NCCCCCCCCCCCC)CC(O)C(=O)NCCCCCCCCCCCC)CCCN(CC(O)C(=O)NCCCCCCCCCCCC)CC(O)C(=O)NCCCCCCCCCCCC (centres unmarked) [Compound L0267] | – | – | – | – | – | – | – | – | – | – | – | – | – | – | PDI [1, 15]: 0.16 ± 0.02; Particle size [1, 15]: 148.37 ± 1.40 nm; PDI [1, 16]: 0.14 ± 0.01; Particle size [1, 16]: 121.47 ± 0.72 nm; IVIS (mice; DMG-PEG2000:DSPC:Chol:Lipid 1.40:11.15:38.95:48.50, N/P 45, IV, whole body scan): 3.89 × 10^5; IVIS (mice; DMG-PEG2000:DSPC:Chol:Lipid 1.77:14.07:49.16:35.00, N/P 45, IM, whole body scan): 1.05 × 10^6
CCCCCCCCCCCCOC(=O)C(O)CN(CCOCCOCCN(CC(O)C(=O)OCCCCCCCCCCCC)CC(O)C(=O)OCCCCCCCCCCCC)CC(O)C(=O)OCCCCCCCCCCCC (centres unmarked) [Compound L0309] | 0.11 | 180.63 nm | 3.09E+06 | 1.24E+06 | 21.49% | 5.48E+05 | 3.37% | 8.60E+04 | 75.14% | 1.91E+06 | – | – | – | – | –
